Measurements as given in US8338624B2, “Isoflavone derivatives and uses thereof” (Yeda Research and Development Co., Ltd., priority 2007, dated 2012).

What was measured:
[1] = test system: T47D mammary cancer cells; experiment: DNA synthesis by [3H]-thymidine incorporation, T47D cells; assay type: cell-based, human; conditions: Homo sapiens
Protocol: (§1) Cells were cultured in MEM supplemented with 10% FCS and antibiotics. Cells were grown to subconfluence and then treated with various hormones or agents as described by Somjen et al. (Somjen et al., 1998). The cells were characterized in terms of expression of mRNAs for estrogen […] by real time PCR, and the results are summarized in Table 1. N87, 320DM and H295R cells expressed mRNAs for both ERs. The ratio of ERα to ERβ was 1:8.5, 1:30 and 1:1.8 in N87, 320DM and H295R cells, respectively. Ovarian A2780 and prostate C4-24 cells expressed mainly mRNA for ERβ, and the ratio of ERβ to ERα was 300:1 and 70:1, respectively. MLS ovarian cells expressed mRNA only for ERβ. The ratio of ERα to ERβ in T47D cells has been reported to be 9:1.
(§2) [^3H]-Thymidine incorporation into DNA was used for the assessment of the various effects (proliferative or inhibitory) of various isoflavones, isoflavone derivatives and known cytotoxic drugs in the above-mentioned cells. Cells were grown until subconfluence using conditions described in Somjen et al. (Somjen et al., 1998) and then treated with various agents for 24 or 48 h as indicated. At the end of incubation, [^3H]-thymidine was added for two hours. Cells were then treated with 10% ice-cold trichloroacetic (TCA) for 5 min and washed twice with 5% TCA and then with cold ethanol. The cellular layer was dissolved in 0.3 ml of 0.3 M NaOH, aliquots were taken for counting radioactivity, and [^3H]-thymidine incorporation into DNA was calculated.

[2] = test system: SK-MEL-5 melanoma cell line; experiment: NCI In Vitro Cell Line Screening, SK-MEL-5; assay type: cell-based; conditions: Homo sapiens, read-out: log10 GI50 (converted)
Protocol: (§3) An in vitro cell line screen for the t-boc derivative of daidzein (compound 9) was performed at the NCI/NIH US utilizing the In Vitro Cell Line Screening Project (IVCLSP) (National Cancer Institute, Developmental Therapeutics Program, Information Technology Branch, Rockville, Md., USA).
(§4) The operation of this screen utilized 60 different human tumor cell lines, representing leukemia, melanoma and cancers of the lung, colon, brain, ovary, breast, prostate, and kidney. […] Using these algorithms, it is possible to assign a putative mechanism of action to a test compound, or to determine that the response pattern is unique and not similar to that of any of the standard prototype compounds included in the NCI database.
(§5) To facilitate analysis of the data, three endpoints were calculated for each cell line: The GI50 value, which is the negative log10 of the concentration required to inhibit the growth of that cell line by 50% (relative to untreated cells); TGI, the negative log10 of minimum concentration that causes total growth inhibition; and LC50, which reflects the negative log10 concentration needed to kill 50% of the cells. A Mean Graph was used as a way of easily visualizing the results from all 60 cell lines at once. To generate this graph, the mean of GI50 values across all 60 cell lines was calculated. […]

[3] = test system: MDA-MB-435 breast cancer cell line; experiment: NCI In Vitro Cell Line Screening, MDA-MB-435; assay type: cell-based; conditions: Homo sapiens, read-out: log10 GI50 (converted)
Protocol: as §3, §4, §5

[4] = test system: 320DM human colon cancer cells; experiment: DNA synthesis by [3H]-thymidine incorporation, 320DM cells; assay type: cell-based
Protocol: as §1
as §2, with “(Somjen et al., 1998) and then treated with various agents for 24 or 48 h as indicated.” left out

K-562 leukemia cell line = experiment: NCI In Vitro Cell Line Screening, K-562; assay type: cell-based; conditions: Homo sapiens, K562, read-out: log10 GI50 (converted)
Protocol: as §3, §4, §5

[5] = test system: H295R adrenocarcinoma cells; experiment: DNA synthesis by [3H]-thymidine incorporation, H295R cells; assay type: cell-based, human
Protocol: as §1, §2

[6] = test system: human prostate C4-2B cancer cells; experiment: DNA synthesis by [3H]-thymidine incorporation, C4-2B cells; assay type: cell-based
Protocol: as §1, §2

MLS ovarian xenografts = MLS ovarian xenografts in nude mice; assay type: in vivo; conditions: 9 iv 400 μg/mouse every other day
Source text: Female CD1 nude mice (8-week old, ˜30 g) were housed and handled with free access to food and water in the animal facility according to the guidelines (1996) of the Institutional Animal Care and Use Committee of the Weizmann Institute of Science, Rehovot, Israel.
Thirty female nude mice (8 weeks old) were inoculated sub-cutaneously (sc) with MLS ovarian carcinoma cells (1.5×10^6/mouse). Ten days later, when the tumors were palpable, the mice were randomly divided into 3 groups (8-10 mice/group). The mice in each group were iv injected every other day either with a vehicle (Neowater, a solubilization enhancer, 0.1 ml), daunomycin dissolved in Neowater (200 μg/mouse in 0.1 ml vehicle, total dose during treatment 1 mg/mouse), or compound 9 dissolved in Neowater (400 μg/mouse in 0.1 ml vehicle, total dose during treatment 2 mg/mouse). During treatment, body weight was recorded to monitor toxicity of the treatment, and the tumors were measured with an external caliper. Tumor volume was calculated using the formula length×width×height×π/6. Statistical significance was assessed using student's t test, and differences were considered significant at p<0.05.

[7] = test system: T-47D breast cancer cell line; experiment: NCI In Vitro Cell Line Screening, T-47D; assay type: cell-based; conditions: Homo sapiens, T47D, read-out: log10 GI50 (converted)
Protocol: as §3, §4, §5

[8] = test system: OVCAR-4 ovarian cancer cell line; experiment: NCI In Vitro Cell Line Screening, OVCAR-4; assay type: cell-based; conditions: Homo sapiens, read-out: log10 GI50 (converted)
Protocol: as §3, §4, §5

In the case of CC(C)(C)OC(=O)NCCCCCCNC(=O)COc1ccc2c(=O)c(-c3ccc(O)cc3)coc2c1 [Compound 9], the inhibition at 10 µM [1] is reported as 24 to 40%, the GI50 [2] is reported as 631 nM and the GI50 [3] is reported as 1820 nM. For the same compound, the “incubation time at which plateau of inhibition of DNA synthesis was reached” value [4] was 72 h, the “DNA synthesis, ratio experimental/control (E/C)” value ([4]; 9 (0.3 μM) + E2 30 nM) was 1.08 ± 0.16 and the “DNA synthesis, ratio experimental/control (E/C)” value ([4]; 9 (0.3 μM) + E2 0.3 μM) was 1.90 ± 0.05. The “anti-proliferative effect in presence of apoptosis inhibitor” value ([4]; 9 at 0.3 μM + Z-VADFK) was “the anti-proliferative effect of 9 was not discernible”, the “DNA synthesis, ratio experimental/control (E/C)” value ([4]; 9 at 0.3 μM + Z-VADFK (25 μM)) was 1.18 ± 0.14 and the “suppression of the proliferative effect of estradiol” value ([4]; 9 at 0.3 μM + estradiol 300 nM) was “could not suppress its proliferative effect”. The “DNA synthesis, ratio experimental/control (E/C)” value ([4]; 9 at 0.3 μM alone (Table 3)) was 0.63 ± 0.11, the “DNA synthesis, ratio experimental/control (E/C)” value ([4]; 9 at 0.3 μM alone (Table 4)) was 0.68 ± 0.14 and the “DNA synthesis, ratio experimental/control (E/C)” value ([4]; 9 at 3 μM + Z-VADFK (25 μM)) was 0.5 ± 0.11. For the same compound, the “DNA synthesis, ratio experimental/control (E/C)” value ([4]; 9 at 3 μM alone (Table 4)) was 0.04 ± 0.22, the “effect on [3H]-thymidine incorporation into DNA” value ([4]; 15 to 6000 nM) was “dose dependent decreases” and the inhibition at 0.3 µM ([4]; Homo sapiens, 9 at 0.3 μM alone) was 32%. The inhibition at 3 µM ([4]; Homo sapiens, 9 at 3 μM alone) was at most 96%, the “DNA synthesis, ratio experimental/control (E/C)” value ([4]; compound at 3 μM) was 0.08 ± 0.01 and the “DNA synthesis (% of control)” value ([4]; estradiol 30 nM + 0.3 μM compound 9) was 100%. The GI50 (K-562 leukemia cell line) was 646 nM, the inhibition at 3 µM ([5]; Homo sapiens, NCI-H295R, at 3 μM, read-out: inhibition of DNA synthesis / growth) was 92% and the “DNA synthesis, ratio experimental/control (E/C)” value ([5]; compound at 3 μM) was 0.08 ± 0.21. The inhibition at 0.03 µM ([6]; Homo sapiens, at 30 nM) was 30%, the inhibition at 0.3 µM ([6]; Homo sapiens, at 300 nM) was about 50% and the “DNA synthesis, ratio experimental/control (E/C)” value ([6]; compound at 0.3 μM) was 0.28 ± 0.2. The “weight reduction or death of treated mice” value (MLS ovarian xenografts) was “No weight reduction or death”, the “weight reduction or death of treated mice” value (MLS ovarian xenografts; listed as t-Boc daidzein derivative) was “did not cause death or weight loss” and the GI50 [7] was 1350 nM. The GI50 [8] was 407 nM.
